Experimental data from patent US20080090812A1 (priority 2004, published 2008).
“Also recorded” adds a separate entry of the source. Where a SMILES comes first, the peptide text is derived from it. The star is where a group is joined. Cbz = O=C(OCc1ccccc1)*; CH2F = FC*

Legend:
B-CLL cells [1] = assay: Flow cytometry-based in vitro apoptosis assay (FSC/SSC, Annexin V) in primary B-CLL cells; assay type: cell-based, human; details: for degree of apoptosis in the cell culture: B-CLL cultures of the p53/GADD45 experiment (FIG. 4b); for mean LD50 in previously treated versus untreated patient sub-set: 34 patient cohort (FIG. 5)
Description: Peripheral blood samples from 34 patients with B-CLL (20 untreated and 14 treated) and 10 age-matched normal controls were obtained with the patients' informed consent. B-CLL was defined by clinical criteria as well as cellular morphology and the co-expression of CD19 and CD5 in lymphocytes simultaneously displaying restriction of light-chain rearrangement. Staging was based on the Binet classification system.^14 None of the previously treated patients had received therapy for at least three months prior to this study.
Freshly isolated peripheral blood lymphocytes (1×10^6/ml) were cultured in Eagles medium (Invitrogen, Paisley, UK) supplemented with 100 units/ml penicillin, 100 μg/ml streptomycin and 10% fetal calf serum. Lymphocytes were incubated at 37° C. in a humidified 5% carbon dioxide atmosphere in the presence of SJG-136 (10^−10−10^−7 M). […]
In this study changes in forward light scatter (FSC) and side light scatter (SSC) characteristics were used to quantify apoptotic and viable cell populations as described previously.^16-18 Typically, lymphocytes show a reduction in FSC (a function of cytoplasmic shrinkage) and an increase in SSC (due to increased granularity) when they undergo apoptosis.^19 The quantitation of apoptosis using an FSC/SSC gating strategy in conjunction with back gating of R-phycoerythrin cyanine 5 (RPE-cy5) labeled CD19+ (Dako) or R-phycoerythrin labeled CD3+ (Dako) lymphocytes allowed simultaneous acquisition of data in viable and apoptotic B-lymphocyte and T-lymphocyte sub-populations, respectively. All LD50 and LD90 values (the concentration of the relevant chemotheraputic agent required to kill 50% and 90% of cells respectively) were derived from the dose-response curves. Duplicate samples were assessed using fluorescein (FITC)-labeled Annexin V to confirm the presence of apoptotic cells in the cell cultures and to validate the FSC/SSC quantitation method.^20
The data obtained in these experiments were evaluated using the equal variance and paired Student's t-test, and correlation coefficients were calculated from least squares linear regression plots. LD50 values were calculated from line of best-fit analysis of the dose response curves. All statistical analyses were performed using Graphpad Prism 3.0 software (Graphpad Software Inc., San Diego, Calif.).
A flow cytometry-based in vitro apoptosis detection assay was used to determine whether SJG-136 could induce apoptotic cell death in B-CLL cells. The characteristic changes in the forward and side light scatter resulting from cellular shrinkage described previously were used to define apoptosis.^19 In addition, Annexin V labeling was also performed in order to verify the light scatter data.

GADD45 = assay: Intracellular staining of GADD45 expression in B-CLL cells by flow cytometry; assay type: cell-based, human; details: B-CLL cells versus no-drug control (FIG. 4b)
Method: (§1) B-CLL cells were cultured for 4h and 48h in the presence or absence of one of the drugs under investigation. Cells were harvested by centrifugation and incubated with 10 μL of anti-CD19-RPE-cy5 conjugated antibody. Subsequently the cells were washed with phosphate buffered saline (PBS) at pH 7.2 and then prepared for intracellular staining of phosphorylated p53 and GADD45 (Santa Cruz Biotechnology, Santa Cruz, Calif.) using a commercially available kit (DAKO, Ely, UK). A FITC-labeled secondary antibody was added to the cells (DAKO) and after a final washing step the cells were resuspended in 0.5 mL of 1% paraformaldehyde prior to flow cytometric analysis using a FACScan flow cytometer (Becton Dickinson, Calif.).
(§2) Phosphorylation of p53 and expression of GADD45 were measured in control B-CLL cell samples with no cytotoxic agent added and in B-CLL cell samples in the presence of either chloambucil or SJG-136.

phosphorylated p53 = assay: Intracellular staining of phosphorylated p53 in B-CLL cells by flow cytometry; assay type: cell-based, human; details: 10 μM chlorambucil or 25 nM SJG-136, versus no-drug control (FIG. 4a)
Method: as §1, §2

B-CLL cells [2] = assay: Flow cytometry-based in vitro apoptosis assay (FSC/SSC, Annexin V) in primary B-CLL cells; assay type: cell-based, human; details: for mean LD50 in previously treated versus untreated patient sub-set: expanded cohort of 46 patients (FIG. 10)
caspase-3 = assay: SJG-136 induced caspase-3 activation in B-CLL cells (PhiPhiLux G1D2 substrate, flow cytometry); assay type: cell-based, human; details: inhibitor final concentration 2 μM, SJG-136-treated B-CLL cell cultures
Method: B-CLL cells were incubated at 37° C. in a humidified 5% carbon dioxide atmosphere in the presence of SJG-136 (10^−10−10^−7 M) or fludarabine (10^−7″10^−5 M) for 12, 24 and 48 h. Cells were then harvested by centrifugation and labeled with CD19 RPE-cy5 conjugated antibody. Subsequently the cells were incubated for 1 h at 37° C. in the presence of the PhiPhiLux™ G1D2 substrate (Calbiochem, Nottingham, UK). The substrate contains two fluorophores separated by a quenching linker sequence that is cleaved by active caspase-3. Once cleaved the resulting products fluoresce green and can be quantified using flow cytometry. In additional experiments the caspase-8 inhibitor, Z-IETD-FMK, or the caspase-9 inhibitor, Z-LEHD-FMK, (Cambridge Bioscience, Cambridge, UK) were added to SJG-136-treated cell cultures (final concentration 2 μM) in order to determine whether either of these inhibitors was able to abrogate the apoptotic effects of SJG-136 in B-CLL cells.

calf thymus DNA = details: after incubation for 18 hours at 37° C.; cited from earlier work
[3] = expanded cohort, 46 B-CLL patient samples
[4] = 34 B-CLL patient samples, 48 h exposure

SMILES | degree of apoptosis in the cell culture (B-CLL cells [1]) | GADD45 expression (GADD45) | phosphorylated p53 (p-p53) (phosphorylated p53) | mean LD50 in previously treated versus untreated patient sub-set (B-CLL cells [2]) | mean LD50 in previously treated versus untreated patient sub-set (B-CLL cells [1]) | abrogation of SJG-136-induced caspase-3 activation by added caspase inhibitor (caspase-3) | other results
O=C(O)CCCc1ccc(N(CCCl)CCCl)cc1 [chlorambucil] | significantly increased over the control experiment | much higher; also recorded: marked increase in GADD45 expression | an increase in phosphorylated p53 | – | – | – | –
Nc1nc(F)nc2c1ncn2[C@@H]1O[C@H](CO)[C@@H](O)[C@@H]1O [fludarabine, reference compound] | – | – | – | significantly higher mean LD50 value | significantly higher mean LD50 value | – | in vitro sensitivity of samples from two treated patients with known p53 mutation (B-CLL cells [1]; compared with remaining patient samples): high degree of in vitro resistance
CC[C@H](C)[C@H](NC(=O)OCc1ccccc1)C(=O)N[C@@H](CCC(=O)OC)C(=O)N[C@H](C(=O)N[C@@H](CC(=O)OC)C(=O)CF)[C@@H](C)O [Z-IETD.FMK, Z-IETD-FMK] (Cbz-IE(OMe)TD(OMe)-CH2F) | – | – | – | – | – | not | –
C=C1C[C@H]2C=Nc3cc(OCCCOc4cc5c(cc4OC)C(=O)N4CC(=C)C[C@H]4C=N5)c(OC)cc3C(=O)N2C1 [SJG-136] | greater degree of apoptosis than either the control experiment or the chlorambucil experiment | only slightly higher than in the control experiment | none of the B-CLL cells (n=9) treated with SJG-136 phosphorylated p53 | no effect | no effect | – | patient samples in which apoptosis was induced (B-CLL cells [2]; 46 patient cohort): all 46 patient samples; mean LD50 value (±SD) (B-CLL cells [2]; [3]): 0.19 nM; mean LD90 value (±SD) (B-CLL cells [2]; [3]): 38.63 nM; mean LD50 value (±SD) (B-CLL cells [1]; [4]): 9.06 nM; mean LD90 value (±SD) (B-CLL cells [1]; [4]): 43.09 nM; patient samples in which apoptosis was induced (B-CLL cells [1]; 34 patient cohort): all 34 patient samples; increase in the thermal denaturation of calf thymus DNA (calf thymus DNA): 33.6 °C
COC(=O)CC[C@H](NC(=O)[C@H](CC(C)C)NC(=O)OCc1ccccc1)C(=O)N[C@@H](Cc1cnc[nH]1)C(=O)N[C@@H](CC(=O)OC)C(=O)CF [Z-LEHD-FMK] (Cbz-LE(OMe)HD(OMe)-CH2F) | – | – | – | – | – | partially abrogated | –
